ChEMBL document CHEMBL5126507, “P2Y12 antagonists: Approved drugs, potential naturally isolated and synthesised compounds, and related in-silico studies” (Eur J Med Chem, 2022)
Each block holds one compound with its values, some of them ahead of it.

Columns and labels:
P2Y purinoceptor 12 [1] = target: T1, P2Y purinoceptor 12 (Homo sapiens, UniProt Q9H244); assay: Displacement of tritium-labeled 2MeSADP from human P2Y12 expressed in CHO cells measured after 2 hrs by scintillation counting method; type: cell-based
Blood [2] = assay: Ex vivo inhibition of platelet aggregation in Sprague-Dawley rat blood at 3 mg/kg, iv measured after 2 hrs; type: functional; parameters: scale not given: the % may be the effect or the level left
Blood [3] = assay: Ex vivo inhibition of platelet aggregation in Sprague-Dawley rat blood at 10 mg/kg, po measured after 2 hrs; type: functional; parameters: scale not given: the % may be the effect or the level left
[4] = Antiplatelet activity in human platelet rich plasma assessed as inhibition of ADP-induced platelet aggregation preincubated for 5 mins followed by ADP addition and measured after 20 mins by microplate reader analysis; type: functional, cell-based
[5] = Antiplatelet activity in human platelet rich plasma assessed as inhibition of ADP-induced platelet aggregation preincubated for 5 mins followed by ADP addition and measured after 5 mins; type: functional, cell-based
[6] = Antiplatelet activity in human platelet rich plasma assessed as inhibition of ADP-induced platelet aggregation preincubated for 2 mins followed by ADP addition and measured after 6 mins by Born method; type: functional, cell-based
P2Y purinoceptor 12 [7] = target: T1, P2Y purinoceptor 12; assay: Displacement of [3H]2MeSADP from P2Y12 (unknown origin)
[8] = Antiplatelet activity in human platelet rich plasma assessed as inhibition of ADP-induced platelet aggregation preincubated for 2 mins followed by ADP addition for 5 mins; type: functional, cell-based
P2Y purinoceptor 12 [9] = target: T1, P2Y purinoceptor 12; assay: Inhibition of 2-MeS-ADP induced P2Y12 (unknown origin) signalling expressed in CHO cells membrane incubated for 45 mins by 35S-GTPgammaS assay; type: functional, cell membranes
P2Y purinoceptor 12 [10] = target: T1, P2Y purinoceptor 12; assay: Displacement of 2-MeS[3H]-ADP from P2Y12 (unknown origin) expressed in HEK293 cells preincubated for 5 mins followed by 2-MeS[3H]-ADP addition and measured after 30 mins by Topcount beta counter analysis; type: cell-based
[11] = Anti-platelet aggregation activity in rat platelet rich plasma assessed as inhibition of ADP-induced aggregation at 250 ug/ml pre-treated for 5 mins followed by ADP addition by hemocytometer analysis; type: functional; parameters: scale not given: the % may be the effect or the level left; conditions: dose 250 µg/ml
P2Y purinoceptor 12 [12] = target: T1, P2Y purinoceptor 12; assay: Binding affinity to P2Y12 (unknown origin)
P2Y purinoceptor 1 = P2Y purinoceptor 1 (Homo sapiens, UniProt P47900); assay: Displacement of [3H]2MeSADP from human P2Y1 expressed in U2OS cell membranes incubated for 60 mins by scintillation counting method; parameters: species or system Membrane
P2Y purinoceptor 12 [13] = target: T1, P2Y purinoceptor 12; assay: Displacement of [3H]2MeSADP from human P2Y12 expressed in U2OS cell membranes incubated for 60 mins by scintillation counting method; parameters: species or system Membrane

T1 sequence (Q9H244 whole entry): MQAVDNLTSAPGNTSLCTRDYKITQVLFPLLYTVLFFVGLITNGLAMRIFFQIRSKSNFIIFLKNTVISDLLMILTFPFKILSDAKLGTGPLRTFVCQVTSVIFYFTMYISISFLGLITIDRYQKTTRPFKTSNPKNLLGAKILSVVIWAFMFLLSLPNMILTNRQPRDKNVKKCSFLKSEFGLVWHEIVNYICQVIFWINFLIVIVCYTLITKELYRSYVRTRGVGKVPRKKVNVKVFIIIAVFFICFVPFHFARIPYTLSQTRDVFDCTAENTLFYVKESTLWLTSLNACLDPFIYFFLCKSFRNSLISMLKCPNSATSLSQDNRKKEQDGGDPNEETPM
Sequence of P2Y purinoceptor 1 (P47900 whole entry): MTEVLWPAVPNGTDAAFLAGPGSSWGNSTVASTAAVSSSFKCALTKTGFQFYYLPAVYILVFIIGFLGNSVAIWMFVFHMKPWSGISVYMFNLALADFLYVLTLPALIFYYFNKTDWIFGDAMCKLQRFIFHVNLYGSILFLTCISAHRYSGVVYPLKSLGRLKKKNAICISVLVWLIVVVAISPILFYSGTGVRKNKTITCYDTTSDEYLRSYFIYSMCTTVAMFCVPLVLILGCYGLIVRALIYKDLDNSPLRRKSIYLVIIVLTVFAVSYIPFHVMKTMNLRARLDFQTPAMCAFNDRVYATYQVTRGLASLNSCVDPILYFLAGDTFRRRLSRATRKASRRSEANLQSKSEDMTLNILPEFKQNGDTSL

SMILES: CCOC(=O)N1CCN(C(=O)[C@@H](CCC(=O)O)NC(=O)c2cc(Cl)cc(-c3ccccc3)n2)CC1
IC50 (P2Y purinoceptor 12 [1]): 0.034 µM

SMILES: CCCC(=O)c1cnn(-c2ccc(NC(=O)c3cn(CC(=O)N4CCN(C)CC4)c4ccc(Cl)cc34)nn2)c1C
Activity (Blood [2]): 79%
Activity (Blood [3]): 73.5%

SMILES: CCOC(=O)N1CCN(C(=O)[C@H](CCC(=O)O)NC(=O)c2cc(OCC(=O)N[C@@H](C)C(=O)O)n(-c3ccccc3)n2)CC1
IC50 [4]: 1.48 µM

SMILES: CCOC(=O)N1CCN(C(=O)[C@H](CCC(=O)O)NC(=O)c2cc(OCC(=O)N3CCC[C@H]3C(=O)NC3CCCC3)n(-c3ccccc3)n2)CC1
IC50 [6]: ≤ 0.011 µM

SMILES: C[C@H]([C@@H](O)[C@H](O)[C@@H](C)C(C)(C)C)[C@H]1CC[C@H]2[C@@H]3CC[C@H]4C[C@@H](OS(=O)(=O)O)[C@H](OS(=O)(=O)O)C[C@]4(C)[C@H]3CC[C@]12C
IC50 (P2Y purinoceptor 12 [7]): 2.2 µM

SMILES: CCCCOC(=O)N1CCN(C(=O)[C@H](CP(=O)(O)O)NC(=O)c2nc(-c3ccccc3)sc2N2CCN(C)CC2)CC1
IC50 (P2Y purinoceptor 12 [1]): 0.001 µM

SMILES: CCNC(=O)[C@@H]1CCCN1C(=O)COc1cc(C(=O)N[C@@H](CCC(=O)O)C(=O)N2CCN(C(=O)OCC)CC2)nc2cccc(F)c12
IC50 [4]: 0.03 µM

SMILES: C[C@H](CC[C@@H](C)C(C)(C)C)[C@H]1CC[C@H]2[C@@H]3C[C@H](OS(=O)(=O)O)[C@H]4C[C@@H](OS(=O)(=O)O)[C@H](OS(=O)(=O)O)C[C@]4(C)[C@H]3CC[C@]12C
IC50 (P2Y purinoceptor 12 [7]): 0.48 µM

SMILES: CCOC(=O)N1CCN(C(=O)[C@H](CCC(=O)O)NC(=O)c2cc(OCC(=O)N3CCC[C@H]3C(=O)NC3CC3)n(-c3ccccc3)n2)CC1
IC50 [6]: ≤ 0.011 µM

SMILES: O=C(O)CC[C@H](NC(=O)c1cc(OCC(=O)N2CCC[C@H]2C(=O)NC2CCC2)n(-c2ccccc2)n1)C(=O)N1CCN(C(=O)OC2CCC2)CC1
IC50 [6]: ≤ 0.011 µM

SMILES: CC(=O)CCC1=C(C)C[C@@H](O[C@@H]2O[C@H](CO[C@@H]3OC[C@@H](O)[C@H](O)[C@H]3O)[C@@H](O)[C@H](O)[C@H]2O)CC1(C)C
Activity [11]: 89.59%

SMILES: O=C(/C=C/c1ccc(O)c(O)c1/C=C/c1ccc(O)c(O)c1)O[C@H](Cc1ccc(O)c(O)c1)C(=O)O [SALVIANOLIC ACID A]
Ki (P2Y purinoceptor 1): 20.3 µM

SMILES: O=C(/C=C/c1ccc(O)c2c1[C@H](C(=O)O[C@H](Cc1ccc(O)c(O)c1)C(=O)O)[C@@H](c1ccc(O)c(O)c1)O2)O[C@H](Cc1ccc(O)c(O)c1)C(=O)O
Ki (P2Y purinoceptor 12 [13]): 36.4 µM

The next lines start with the values.

IC50 [5]: 1.85 µM
SMILES: COc1cc(/C=C/c2cc(O)cc(O)c2)ccc1O

IC50 [8]: 0.001 µM
SMILES: CCCCOC(=O)N1CCN(C(=O)[C@H](CCP(=O)(O)O)NC(=O)c2cc(N3CC[C@H](OC)C3)nc(-c3ccccc3)n2)CC1

IC50 (P2Y purinoceptor 12 [9]): 0.1 µM
SMILES: CCCC(=O)c1cc(C#N)c(N(C(=O)C2CCNCC2)S(=O)(=O)Cc2cccc(F)c2)nc1C

IC50 (P2Y purinoceptor 12 [9]): 0.26 µM
SMILES: CCCC(=O)c1cc(C#N)c(N(C(=O)C2CCNCC2)S(=O)(=O)CCc2ccccc2)nc1C

IC50 (P2Y purinoceptor 12 [10]): 1.35 µM
SMILES: CCCSc1nc(N[C@@H]2C[C@H]2c2ccccc2)c2nnn([C@@H]3CC[C@H](O)[C@@H](O)[C@H]3O)c2n1

IC50 (P2Y purinoceptor 12 [1]): 0.001 µM
SMILES: CCCCOC(=O)N1CCN(C(=O)[C@H](CCC(=O)O)NC(=O)c2nc(-c3ccccc3)sc2N2CC[C@H](OC)C2)CC1

IC50 (P2Y purinoceptor 12 [1]): 0.001 µM
SMILES: CCCCOC(=O)N1CCN(C(=O)[C@H](CP(=O)(O)O)NC(=O)c2csc(-c3ccccc3)n2)CC1

IC50 [6]: ≤ 0.011 µM
SMILES: CCCCOC(=O)N1CCN(C(=O)[C@H](CCC(=O)O)NC(=O)c2cc(OCC(=O)N3CCC[C@H]3C(=O)N(C)C3CC3)n(-c3ccccc3)n2)CC1

IC50 (P2Y purinoceptor 12 [12]): 0.32 µM
SMILES: Cc1cnc(-c2cnc(N3CCN(C(=O)NS(=O)(=O)c4ccccc4)CC3)c(Cl)c2)o1

IC50 (P2Y purinoceptor 12 [1]): 0.001 µM
SMILES: CCOC(=O)N1CCN(C(=O)[C@H](Cc2ccc(P(=O)(O)O)cc2)NC(=O)c2csc(-c3ccccc3)n2)CC1
